From patent US7879872B2, “Compositions comprising multiple bioactive agents, and methods of using the same” (Affinium Pharmaceuticals, Inc., priority 2003, dated 2011)

Key:
Assay type in all cases: cell-based
[1] = test system: E. coli EC_25922; experiment: checkerboard combination, clinical bacterial isolates (FIC)
Description: (§1) The combination experiments were performed and the results were interpreted using the checkerboard method as described in Eliopoulous, G. M., and R. C. Moellering, 1996, Antimicrobial combinations, p. 330-396, In V. Lorian (ed.), Antibiotics in laboratory medicine, 4th ed., The Williams & Wilkins Co., Baltimore, Md., in 96-well microtiter plates. Compound A was serially diluted along the x-axis of the test plate to a final volume of 50 μl, and compound B was serially diluted in a separate transfer plate. Dilutions in both plates were made in CAMHB (cation-adjusted Mueller Hinton broth) for Staphylococci and in CAMHB+5% sheep blood for Streptococci. Aliquots (50 μl) of Compound B were transferred to the test plate along the y-axis thereby achieving a checkerboard matrix of antimicrobial combinations (100 μl total volume) as in FIG. 4. The first column and last row (shaded in FIG. 4) contained only compound B or compound A, respectively. Plates were then inoculated with 10 μl of the test microorganism and MICs were determined according to NCCLS guidelines (see National Committee for Clinical Laboratory Standards, 2000, Methods for Dilution Antimicrobial Susceptibility Tests for Bacteria That Grow Aerobically—Fifth Edition, Approved Standard M7-A5, NCCLS, Wayne, Pa., USA.)
(§2) Data analysis was performed as follows and according to Eliopoulous, G. M., and R. C. Moellering, 1996, Antimicrobial combinations, p. 330-396, In V. Lorian (ed.), Antibiotics in laboratory medicine, 4th ed., The Williams & Wilkins Co., Baltimore, Md. First individual FIC values for each combination in a plate were calculated: FIC(Fractional Inhibitory Concentration)=FICA+FICB • FICA=MICA+B/MICA i.e. the MIC of combination of compound A+compound B divided by the MIC of compound A alone. • FICB=MICB+A/MICB i.e. the MIC of combination of compound B+compound A divided by the MIC of compound B alone.
(§3) FIC values were calculated only for combinations that enabled determination of a true MIC (e.g. not > or <=values). FIC indexes were then calculated as the average of individual FIC values for each combination plate.

[2] = test system: E. faecalis EF_A6221420; experiment: as above; conditions: E. faecalis EF_A6221420 (VRE)
Description: as §1, §2, §3

[3] = test system: H. influenzae HI_49247; experiment: as above; conditions: compound G with Azithromycin
Description: as §1, §2, §3

[4] = test system: P. aeruginosa PA_27853; experiment: as above
Description: as §1, §2, §3

[5] = test system: S. aureus SA_29213; experiment: as above; conditions: S. aureus SA_29213 (MSSA)
Description: as §1, §2, §3

[6] = test system: S. aureus SA_A6250596; experiment: as above; conditions: S. aureus SA_A6250596 (MRSA-MDR)
Description: as §1, §2, §3

[7] = test system: S. aureus SA_A7080336; experiment: as above; conditions: S. aureus SA_A7080336 (MRSA)
Description: as §1, §2, §3

[8] = test system: S. epidermidis SE_A7100750; experiment: as above; conditions: S. epidermidis SE_A7100750 (MRSE CipR)
Description: as §1, §2, §3

[9] = test system: S. mitis SMI_116; experiment: as above
Description: as §1, §2, §3

[10] = test system: S. pneumoniae SP_22257; experiment: as above; conditions: compound G with Azithromycin; S. pneumoniae SP_22257 (PenR EryS ClinS)
Description: as §1, §2, §3

[11] = test system: S. pneumoniae SP_22425; experiment: as above; conditions: S. pneumoniae SP_22425 (PenR EryR ClinR)
Description: as §1, §2, §3

[12] = test system: S. pyogenes SPY_20015; experiment: as above; conditions: compound G with Gatifloxacin
Description: as §1, §2, §3

[13] = test system: S. pyogenes SPY_20061; experiment: as above; conditions: S. pyogenes SPY_20061 (EryS)
Description: as §1, §2, §3

[14] = test system: major pathogenic species tested; experiment: Checkerboard combination studies of compound G and commercial antibiotics (FIG. 7); conditions: all major pathogenic species tested
Description: Checkerboard experiments were performed and analyzed according to standard procedures as outlined below.

[15] = test system: S. pneumoniae 22425, a penicillin and macrolide resistant clinical isolate; experiment: Combination time-kill studies; conditions: compound alone at both 0.03 μg/ml and 1 μg/ml; S. pneumoniae 22425; FIG. 8
Description: Combination time-kill studies were performed as follows. Bacterial inocula were prepared as for MIC determination according to CLSI guidelines. Log phase cells (˜10^6 CFU/ml) were inoculated into 24 well plates and incubated with the indicated concentrations of compound G and commercial antibiotics for 24 hours at 35° C. At indicated time points samples were removed for determination of viable CFU counts. Results are plotted as log CFU/ml vs. time.

Cc1c(CN(C)C(=O)/C=C/c2cnc3c(c2)CCC(=O)N3)oc2ccccc12 [Compound G, (E)-N-methyl-N-(3-methylbenzofuran-2-ylmethyl)-3-(7-oxo-5,6,7,8-tetrahydro-1,8-naphthyridin-3-yl)acrylamide]
FIC ([1]; compound G with Ceftriaxone): 0.7
FIC ([1]; compound G with Gatifloxacin): <2
FIC ([1]; compound G with Meropenem): 0.6
FIC ([2]; compound G with Ceftriaxone): <2
FIC ([2]; compound G with Gatifloxacin): <2
FIC ([2]; compound G with Levofloxacin): <2
FIC ([2]; compound G with Meropenem): <2
FIC [3]: <2
FIC ([4]; compound G with Gatifloxacin): <2
FIC ([4]; compound G with Meropenem): <2
FIC ([5]; compound G with Azithromycin): 0.6
FIC ([5]; compound G with Ceftriaxone): <2
FIC ([5]; compound G with Cefuroxime): <2
FIC ([5]; compound G with Meropenem): 1
FIC ([5]; compound G with Penicillin): 0.7
FIC ([6]; compound G with Azithromycin): <2
FIC ([6]; compound G with Ceftriaxone): <2
FIC ([6]; compound G with Cefuroxime): <2
FIC ([6]; compound G with Gatifloxacin): 1
FIC ([6]; compound G with Levofloxacin): 1
FIC ([6]; compound G with Meropenem): <2
FIC ([6]; compound G with Penicillin): <2
FIC ([7]; compound G with Gatifloxacin): 0.6
FIC ([7]; compound G with Levofloxacin): 0.6
FIC ([8]; compound G with Ceftriaxone): 1
FIC ([8]; compound G with Gatifloxacin): <2
FIC ([8]; compound G with Meropenem): 0.6
FIC ([9]; compound G with Ceftriaxone): <2
FIC ([9]; compound G with Gatifloxacin): <2
FIC ([9]; compound G with Meropenem): <2
FIC ([9]; compound G with Penicillin): <2
FIC [10]: <2
FIC ([11]; compound G with Ceftriaxone): <2
FIC ([11]; compound G with Cefuroxime): <2
FIC ([11]; compound G with Gatifloxacin): <2
FIC ([11]; compound G with Levofloxacin): <2
FIC ([11]; compound G with Meropenem): <2
FIC [12]: <2
FIC ([13]; compound G with Ceftriaxone): <2
FIC ([13]; compound G with Gatifloxacin): <2
antagonism in compound G combinations [14]: did not show antagonism
activity against S. pneumoniae (time-kill) [15]: no activity
